Where “and” joins values, the source holds several entries; their conditions need not be identical. Equal values may be shown once.
Each molecule was assayed against Inosine-5'-monophosphate dehydrogenase 2 (Homo sapiens, UniProt P12268) (assay: Enzyme Assay). Conditions: pH 8; 37 °C.
Experimental: The reaction was initiated by the addition of 300 μM of IMP and 500 μM of NAD+ and the assay was allowed to proceed at 37 °C for 50 min before stopping by the addition of 15 mM GMP. The NADH generated was measured by reading the absorbance at 340 nm.

| Structure (SMILES) | IC50 |
| --- | --- |
| COc1cc(N/C(=N/C#N)Nc2cccc(-c3nnnn3C)c2)ccc1C#N [IMPDH II inhibitor, 48] | < 30 µM |
| COc1cc(NC(=O)Nc2cccc(CNC(=O)OC3CCOC3)c2)ccc1-c1cnco1 (configuration not stated) [VX-497 (2)] | 0.0035 µM |
| COc1cc(N/C(=N/C#N)Nc2cccc(-c3ccccc3F)c2)ccc1C#N [IMPDH II inhibitor, 54] | < 30 µM |
| CCC(CC#N)OC(=O)N[C@@H](C)c1cccc(NC(=O)Nc2ccc(C3=CCOCC3)c(OC)c2)c1 (some centres not stated) [IMPDH II inhibitor, 16] | 3.5 µM |
| CCC(CC#N)OC(=O)N[C@@H](C)c1cccc(NC(=O)N2CCN(c3ccc(C#N)c(OC)c3)CC2)c1 (some centres not stated) [IMPDH II inhibitor, 41] | < 30 µM |
| CCC(CC#N)OC(=O)N[C@@H](C)c1cccc(NC(=O)Nc2ccc3c(c2)OCO3)c1 (some centres not stated) [IMPDH II inhibitor, 20] | > 30 µM |
| CCC(CC#N)OC(=O)N[C@@H](C)c1cccc(NC(=N)Nc2ccc(C#N)c(OC)c2)c1 (some centres not stated) [IMPDH II inhibitor, 30] | < 30 µM and 30 µM |
| CCC(CC#N)OC(=O)N[C@@H](C)c1cccc(NC(=O)CNc2ccc(C#N)c(OC)c2)c1 (some centres not stated) [IMPDH II inhibitor, 37] | < 30 µM |
| CCC(CC#N)OC(=O)N[C@@H](C)c1cccc(Nc2nc3ccc(-c4ccc(C#N)c(OC)c4)cc3[nH]2)c1 (some centres not stated) [IMPDH II inhibitor, 44] | < 30 µM |
| CCC(CC#N)OC(=O)N[C@@H](C)c1cccc(NC(=O)Nc2ccc3ncnc(OC)c3c2)c1 (some centres not stated) [IMPDH II inhibitor, 25] | < 30 µM |
| CCC(CC#N)OC(=O)N[C@@H](C)c1cccc(NC(=O)NS(=O)(=O)c2ccc(OC)c(OC)c2)c1 (some centres not stated) [IMPDH II inhibitor, 40] | < 30 µM |
| COc1cc(N/C(=N/C#N)Nc2cccc(-c3ccc(F)cc3)c2)ccc1C#N [IMPDH II inhibitor, 56] | < 30 µM |
| CCC(CC#N)OC(=O)N[C@@H](C)c1cccc(N/C(=N/C#N)Nc2ccc(OC)c(OC)c2)c1 (some centres not stated) [IMPDH II inhibitor, 33] | 5.6 µM |
| CCC(CC#N)OC(=O)N[C@@H](C)c1cccc(NC(=O)Nc2ccc(OC)c(OC)c2)c1 (some centres not stated) [IMPDH II inhibitor, 13] | 0.23 µM |
| COc1cc(N/C(=N/C#N)Nc2cccc(-c3ccc(C#N)cc3)c2)ccc1C#N [IMPDH II inhibitor, 59] | < 30 µM |
| CCC(CC#N)OC(=O)N[C@@H](C)c1cccc(NC(=O)Nc2ccc3c(c2)ncn3C)c1 (some centres not stated) [IMPDH II inhibitor, 21] | 14 µM |
| COc1cc(N/C(=N/C#N)Nc2cccc(-c3nnn(C)n3)c2)ccc1C#N [IMPDH II inhibitor, 47] | < 30 µM |
| CCC(CC#N)OC(=O)N[C@@H](C)c1cccc(N/C(=C/[N+](=O)[O-])Nc2ccc(OC)c(OC)c2)c1 (some centres not stated) [IMPDH II inhibitor, 35] | < 30 µM |
| COc1cc(N/C(=N/C#N)Nc2cccc(-c3cccc(C(F)(F)F)c3)c2)ccc1C#N [IMPDH II inhibitor, 57] | < 30 µM |
| CCC(CC#N)OC(=O)N[C@@H](C)c1cccc(NC(=O)Nc2ccc3c(=O)ccoc3c2)c1 (some centres not stated) [IMPDH II inhibitor, 27] | < 10 µM |
| CCC(CC#N)OC(=O)N[C@@H](C)c1cccc(NC(=O)Nc2ccc(N3CCOCC3)c(OC)c2)c1 (some centres not stated) [IMPDH II inhibitor, 15] | < 30 µM |
| COc1cc(N/C(=N/C#N)Nc2cccc(C(=O)O)c2)ccc1C#N [IMPDH II inhibitor, 53] | < 30 µM |
| CCC(CC#N)OC(=O)N[C@@H](C)c1cccc(NC(=O)Nc2ccc(C3CCOCC3)c(OC)c2)c1 (some centres not stated) [IMPDH II inhibitor, 17] | < 30 µM |
| COc1cc(N/C(=N/C#N)Nc2cccc(-c3cccc(C(=O)O)c3)c2)ccc1C#N [IMPDH II inhibitor, 58] | < 30 µM |

| Structure (SMILES) | IC50 |
| --- | --- |
| CCC(CC#N)OC(=O)N[C@@H](C)c1cccc(NC(=O)COc2ccc(OC)c(OC)c2)c1 (some centres not stated) [IMPDH II inhibitor, 39] | < 30 µM |
| CCC(CC#N)OC(=O)N[C@@H](C)c1cccc(NC(=N)Nc2ccc(OC)c(OC)c2)c1 (some centres not stated) [IMPDH II inhibitor, 31] | < 30 µM |
| CCC(CC#N)OC(=O)N[C@@H](C)c1cccc(NC(=O)Nc2ccc(C#N)c(OC)c2)c1 (some centres not stated) [VX-148 (3)] | 0.38 µM |
| CCC(CC#N)OC(=O)N[C@@H](C)c1cccc(NC(=O)Nc2ccc3c(c2)C(C)CO3)c1 (some centres not stated) [IMPDH II inhibitor, 24] | < 30 µM |
| COc1cc(N/C(=N/C#N)Nc2cccc(-c3cccc(C#N)c3)c2)ccc1C#N [IMPDH II inhibitor, 60] | < 30 µM |
| COc1cc(N/C(=N/C#N)Nc2cccc(-c3cccc(F)c3)c2)ccc1C#N [IMPDH II inhibitor, 55] | < 30 µM |
| CCC(CC#N)OC(=O)N[C@@H](C)c1cccc(N2C(=O)CN(c3ccc(C#N)c(OC)c3)C2=O)c1 (some centres not stated) [IMPDH II inhibitor, 42] | 25 µM |
| COc1cc(N/C(=N/C#N)Nc2cccc(OCC(=O)O)c2)ccc1C#N [IMPDH II inhibitor, 46] | < 30 µM |
| CCC(CC#N)OC(=O)N[C@@H](C)c1cccc(N/C(=C/[N+](=O)[O-])Nc2ccc(C#N)c(OC)c2)c1 (some centres not stated) [IMPDH II inhibitor, 34] | < 30 µM |
| CCC(CC#N)OC(=O)N[C@@H](C)c1cccc(NC(=O)Nc2ccc3ncc(OC)nc3c2)c1 (some centres not stated) [IMPDH II inhibitor, 22] | < 30 µM |
| CCC(CC#N)OC(=O)N[C@@H](C)c1cccc(NC(=O)Nc2ccc(C)c(OC)c2)c1 (some centres not stated) [IMPDH II inhibitor, 14] | 19 µM |
| COc1cc(N/C(=N/C#N)Nc2cccc(CC(=O)O)c2)ccc1C#N [IMPDH II inhibitor, 52] | < 30 µM |
| COc1cc(N/C(=N/C#N)Nc2cccc(CCC(=O)O)c2)ccc1C#N [IMPDH II inhibitor, 50] | < 30 µM |
| COc1cc(N/C(=N/C#N)Nc2cccc(/C=C/C(=O)O)c2)ccc1C#N [IMPDH II inhibitor, 51] | < 30 µM |
| CCC(CC#N)OC(=O)N[C@@H](C)c1cccc(NC(=O)Nc2ccc3c(=O)cc(C)oc3c2)c1 (some centres not stated) [IMPDH II inhibitor, 26] | < 30 µM |
| COc1cc(N/C(=N/C#N)Nc2cccc(Cc3nnn(C)n3)c2)ccc1C#N [IMPDH II inhibitor, 49] | < 30 µM |
| CCC(CC#N)OC(=O)N[C@@H](C)c1cccc(NC(=O)COc2ccc(C#N)c(OC)c2)c1 (some centres not stated) [IMPDH II inhibitor, 38] | < 30 µM |
| CCC(CC#N)OC(=O)N[C@@H](C)c1cccc(NC(=O)Nc2ccc3c(c2)OCC3)c1 (some centres not stated) [IMPDH II inhibitor, 18] | 10 µM |
| CCC(CC#N)OC(=O)N[C@@H](C)c1cccc(NC(=O)c2cncc(-c3ccc(C#N)c(OC)c3)n2)c1 (some centres not stated) [IMPDH II inhibitor, 43] | < 30 µM |
| CCC(CC#N)OC(=O)N[C@@H](C)c1cccc(N/C(=N/C#N)Nc2ccc(C#N)c(OC)c2)c1 (some centres not stated) [IMPDH II inhibitor, 32] | 3 µM |
| CCC(CC#N)OC(=O)N[C@@H](C)c1cccc(NC(=O)Nc2ccc3cc(OC)c(OC)cc3c2)c1 (some centres not stated) [IMPDH II inhibitor, 23] | < 30 µM |
| COc1cc(N/C(=N/C#N)Nc2cccc(OCC(=O)C(C)=O)c2)ccc1C#N [IMPDH II inhibitor, 45] | < 30 µM |
| CCC(CC#N)OC(=O)N[C@@H](C)c1cccc(NCC(=O)Nc2ccc(OC)c(OC)c2)c1 (some centres not stated) [IMPDH II inhibitor, 36] | < 30 µM |

From BindingDB's records for doi:10.3109/14756366.2013.793184 (Nycomed, 2014)
